Data from ChEMBL document CHEMBL2203269, “Target-Activated Prodrugs (TAPs) for the Autoregulated Inhibition of MMP12” (ACS Med Chem Lett, 2012).
Calls of active or inactive are those of the source.

What was measured:
[1] = target: 72 kDa type IV collagenase (Homo sapiens) (UniProt P08253); assay: Activity at MMP2
[2] = target: T1, Interstitial collagenase (Homo sapiens) (UniProt P03956); assay: Activity at MMP1
T1 sequence (whole entry): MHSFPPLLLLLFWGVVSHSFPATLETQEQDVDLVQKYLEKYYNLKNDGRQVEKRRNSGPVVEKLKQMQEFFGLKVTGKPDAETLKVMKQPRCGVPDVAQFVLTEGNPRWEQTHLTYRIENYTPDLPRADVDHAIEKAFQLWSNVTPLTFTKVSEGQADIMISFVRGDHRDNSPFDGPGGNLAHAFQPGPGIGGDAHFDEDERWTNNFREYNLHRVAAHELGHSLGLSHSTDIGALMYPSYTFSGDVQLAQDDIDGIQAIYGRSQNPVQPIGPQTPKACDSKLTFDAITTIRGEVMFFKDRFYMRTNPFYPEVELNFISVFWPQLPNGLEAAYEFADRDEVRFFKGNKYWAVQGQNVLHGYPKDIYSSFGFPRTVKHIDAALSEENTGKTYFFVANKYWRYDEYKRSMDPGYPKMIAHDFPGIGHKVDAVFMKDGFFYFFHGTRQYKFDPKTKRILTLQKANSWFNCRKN

[3] = target: T2, Matrilysin (Homo sapiens) (UniProt P09237); assay: Activity at MMP7
T2 sequence (whole entry): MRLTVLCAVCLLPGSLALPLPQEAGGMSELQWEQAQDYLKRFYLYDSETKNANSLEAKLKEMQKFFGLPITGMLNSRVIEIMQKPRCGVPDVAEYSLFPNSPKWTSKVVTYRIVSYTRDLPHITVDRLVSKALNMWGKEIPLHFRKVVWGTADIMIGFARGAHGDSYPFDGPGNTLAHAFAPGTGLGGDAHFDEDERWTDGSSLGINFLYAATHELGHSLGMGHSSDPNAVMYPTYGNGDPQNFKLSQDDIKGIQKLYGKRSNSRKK

Measured: Activity

Sequence of 72 kDa type IV collagenase (Homo sapiens) (P08253 110-660 limits assumed): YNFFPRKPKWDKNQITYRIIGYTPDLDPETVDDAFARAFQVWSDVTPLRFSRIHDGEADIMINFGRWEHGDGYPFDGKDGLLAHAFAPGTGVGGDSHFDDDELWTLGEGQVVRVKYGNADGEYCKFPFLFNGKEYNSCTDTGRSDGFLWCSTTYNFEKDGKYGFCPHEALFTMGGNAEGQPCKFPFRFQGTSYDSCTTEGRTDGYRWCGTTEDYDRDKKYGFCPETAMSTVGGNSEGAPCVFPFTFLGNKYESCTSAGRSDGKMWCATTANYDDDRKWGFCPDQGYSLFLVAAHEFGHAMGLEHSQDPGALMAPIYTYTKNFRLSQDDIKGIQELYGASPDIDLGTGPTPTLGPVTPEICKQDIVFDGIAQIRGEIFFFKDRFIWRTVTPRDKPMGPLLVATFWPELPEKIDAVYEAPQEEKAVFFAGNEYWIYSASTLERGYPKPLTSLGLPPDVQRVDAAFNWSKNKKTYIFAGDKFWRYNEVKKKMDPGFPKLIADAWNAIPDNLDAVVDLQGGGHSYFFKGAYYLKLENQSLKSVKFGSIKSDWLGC

CC(C)C[C@H](NC(=O)CN(C(=O)[C@H](CC(C)C)NC(=O)[C@@H]1CCCN1C(=O)OCc1ccccc1)S(=O)(=O)c1ccc(-c2ccccc2)cc1)C(=O)N[C@@H](CCC(=O)O)C(=O)N[C@@H](CCC(=O)O)C(=O)N[C@@H](C)C(N)=O
active: [1] | [2] | [3]
